One series relates to right atrium preparation. The series can be described thus: Isolated, blood-perfused right atrium preparation, sinus rate (Table 1). Also on record: species or system Mongrel dogs. Particulars: Canis lupus familiaris, close-arterial injection, read-out: Right atrium preparation; for activation at 0.03 mg: dose 30 μg. As for the experimental part: Mongrel dogs of either sex weighting 7.5-10 kg were anesthetized with sodium pentobarbital (30 mg/kg, i.v.). Each animal was given an intravenous dose of sodium heparin (500 units/kg), thereafter, the heart was removed and placed in cold Tyrode solution. The isolated and cross-circulated right atrium and papillary muscle preparations were arranged for perfusion from a donor dog as follows. The donor dog was also anesthetized with sodium pentobarbital (30 mg/kg, i.v.); heparin (500 units/kg) was given intravenously immediately before the perfusion began. (b) The isolated, blood-perfused right atrium preparation. The sinus node artery was cannulated at its origin in the right coronary artery. A right atrial electrogram was obtained from bipolar electrodes which were placed in close proximity to the sinoatrial node. The sinus rate was recorded by a cardiotachometer triggered by the right atrial electrogram. The details of the bloodperfused right atrium preparation have been described by Chiba et al. (Tohoku J. exp. Med., 107, 101-102 (1972) and Kubota and Hashimoto (Naunyn-Schmiedeberg's Arch. Pharmacol., 278, 135-150 (1973)). Each preparation was perfused with the arterial blood from the carotid artery of the donor dog at a constant perfusion pressure of 100 mmHg by means of a peristaltic pump. The venous effluent from the preparations was collected in a reservoir and returned to the donor dog through the jugular vein. Test compounds used in these experiments were dissolved in vehicle solution and were injected closearterially to the preparations. The effects of each compound on the developed tension and sinuo rate were evaluated as a percentage change in values determined before and after administration of the compound. In Table 1 are shown such changes in terms of the percentage increase after administration.

The test system of series [1] is papillary muscle preparation. The series can be described thus: Isolated, blood-perfused papillary muscle preparation, developed tension (Table 1). Also on record: species or system Mongrel dogs. The settings on record: Canis lupus familiaris, close-arterial injection, read-out: Papillary muscle preparation, % increase in developed tension; for activation at 0.1 mg: dose 100 μg; for activation at 0.03 mg: dose 30 μg. As for the experimental part:
Mongrel dogs of either sex weighting 7.5-10 kg were anesthetized with sodium pentobarbital (30 mg/kg, i.v.). Each animal was given an intravenous dose of sodium heparin (500 units/kg), thereafter, the heart was removed and placed in cold Tyrode solution. The isolated and cross-circulated right atrium and papillary muscle preparations were arranged for perfusion from a donor dog as follows. The donor dog was also anesthetized with sodium pentobarbital (30 mg/kg, i.v.); heparin (500 units/kg) was given intravenously immediately before the perfusion began. (a) The isolated, blood-perfused papillary muscle preparation. The anterior septal artery was dissected and cannulated with polyethylene tubing. The tendinous end of the papillary muscle was connected to a strain-gauge transducer by a fine silk thread and the muscles were under about 2 g of resting tension. The papillary muscle preparation was electrically driven at a constant frequency of 120/min with rectangular pulses of 1-3 V and 5 msec duration. The preparation of the blood-perfused papillary muscle has been described in detail by Endoh and Hashimoto Am. J. Physiol, 218, 1459-1463 (1970). Each preparation was perfused with the arterial blood from the carotid artery of the donor dog at a constant perfusion pressure of 100 mmHg by means of a peristaltic pump. The venous effluent from the preparations was collected in a reservoir and returned to the donor dog through the jugular vein. Test compounds used in these experiments were dissolved in vehicle solution and were injected closearterially to the preparations. The effects of each compound on the developed tension and sinuo rate were evaluated as a percentage change in values determined before and after administration of the compound. In Table 1 are shown such changes in terms of the percentage increase after administration.

In series [2] the test system is anesthetized open-chest dogs. The series can be described thus: Cardiovascular effect in anesthetized open-chest dogs (Table 2). The format is in vivo, Mongrel dogs. The settings on record: Canis lupus familiaris, iv, femoral vein. On the procedure: Mongrel dogs of either sex weighing 9-15 kg were anesthetized with sodium pentobarbital (30 mg/kg, i.v.). The heart was exposed by thoractomy by the left fifth intercostal incision under artificial respiration. Aortic flow was measured by the probe of electromagnetic flowmeter placed around the ascending aorta. Myocardial contractility was measured by the maximal rate of rise of left ventricular pressure which was recorded from a needle inserted into the ventricular cavity. The systemic blood pressure was measured with a pressure transducer by means of a polyethylene cannular inserted into the femoral artery. The heart rate was recorded by a cardiotrachometer triggered by R wave of electrocargiogram (Lead II). Test compounds were dissolved in vehicle solution and were injected into the femoral vein. The effects of each compound on the cardiac contractility and aortic flow were evaluated as a percentage change in values determined before and after administration of the compound. In Table 2 are shown such changes in terms of the percentage increase after administration.

The next series in a line: Toxicity (LD50). The settings on record: in vivo, iv; mouse; I.V.
Where [3] appears, read: dose 100 μg, % increase in sinus rate.
Where [4] appears, read: read-out: Increase in aortic flow (%).
[5] abbreviates: read-out: Increase in cardiac contractility (%).

Molecules are shown by their SMILES. Like-named read-outs stand apart in the source and are kept apart here.

For orientation: LD50 means the dose expected to kill half of the subjects tested. High values mean a less toxic substance, low ones a more toxic substance.

Regarding `CC(=O)O.CC(=O)O.N=C(N)c1ccc(OCc2ccc(CN)cc2)cc1` [Compound 8, 4-(4-aminomethylbenzyloxy)benzamidine diacetate], the inhibition at 0.1 mg in the series on right atrium preparation (dose 100 μg, % decrease in sinus rate (in parentheses)) worked out at 7.7%. In addition, the values for the activation at 0.1 mg (in the series with right atrium preparation (setting [3]); in series [1]) were 2.2% and 20.7%, respectively. In addition, in the series with right atrium preparation (dose 300 μg, % decrease in sinus rate (in parentheses)), the inhibition at 0.3 mg was found to be 9.7%. For the same molecule, the activation at 0.3 mg in the series on right atrium preparation (dose 300 μg, % increase in sinus rate) was 7.5%; in series [1] (dose 300 μg), 44.8%. The figures for the change in vivo at 0.1 mg/kg in series [2] (setting [4]) and in series [2] (setting [5]) were 6.1% and 0%, respectively. Also, the change in vivo at 0.3 mg/kg in series [2] (setting [4]) was found to be 9.5%; in series [2] (setting [5]), 16.7%. The molecule also yielded an LD50 in the series “Toxicity (LD50)” of 57.7 mg/kg.
With `Cl.Cl.N=C(NCCc1ccccc1)c1ccc(CCc2ccc(CN)cc2)cc1` [Compound 5, 4-[2-(4-Aminomethylphenyl)ethyl]-N-(2-phenylethyl)benzamidine dihydrochloride], the activation at 0.03 mg in the series with right atrium preparation (% increase in sinus rate) was found to be 16%; in series [1] it was 33.3%. The results for the activation at 0.1 mg (with right atrium preparation (setting [3]); in series [1]) were 17.7% and 53.5%, respectively. Further, the change in vivo at 0.1 mg/kg is 5% in series [2] (setting [4]) and 12.9% in series [2] (setting [5]). Also, the change in vivo at 0.3 mg/kg in series [2] (setting [4]) stood at 19.2%; in series [2] (setting [5]), 38.9%. This molecule also had an LD50 in the series “Toxicity (LD50)” of 57.7 mg/kg.
In the case of `Cl.Cl.N=C(N)c1ccc(CCc2ccc(CN)cc2)cc1` [Compound 2, 4-[2-(4-Aminomethylphenyl)ethyl]benzamidine dihydrochloride], the results for the activation at 0.03 mg (with right atrium preparation (% increase in sinus rate); in series [1]) were 10.7% and 63.8%, respectively. Further, the activation at 0.1 mg in the series with right atrium preparation (setting [3]) was found to be 21.8%; in series [1], 104%. The change in vivo at 0.03 mg/kg in series [2] (setting [4]) worked out at 5%; in series [2] (setting [5]) it was 7.1%. Further, the change in vivo at 0.1 mg/kg in series [2] (setting [4]) turned out to be 16.1%; in series [2] (setting [5]) it was 25%. The molecule also showed an LD50 in “Toxicity (LD50)” of 40 mg/kg.

These data come from patent publication US4598077A, “Amidine derivatives and cardiotonic compositions” (Torii & Co. Ltd., priority 1983, dated 1986).
